# According to ChEMBL document CHEMBL1201862, “PubChem BioAssay data set” (2004):
# Active and inactive are the calls of the source.
# What was measured:
# [1] = target: Eukaryotic translation initiation factor 4H (Homo sapiens, UniProt Q15056); test: human eIF4H binding inhibitors, primary screen, translation initiation inhibitor project, biochemical, uHTS, fluorescence polarization (AID 2012)
# [2] = target: Polyadenylate-binding protein 1 (Homo sapiens, UniProt P11940); test: PABP poly(A) RNA binding inhibitors, primary screen, biochemical, fluorescence polarization, uHTS (AID 2014)
# [3] = target: Photoreceptor-specific nuclear receptor (Homo sapiens, UniProt Q9Y5X4); type: functional;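 also: potency for compounds that break the NR2E3 corepressor complex and count as activators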
# Sequence of Photoreceptor-specific nuclear receptor (Q9Y5X4 whole entry): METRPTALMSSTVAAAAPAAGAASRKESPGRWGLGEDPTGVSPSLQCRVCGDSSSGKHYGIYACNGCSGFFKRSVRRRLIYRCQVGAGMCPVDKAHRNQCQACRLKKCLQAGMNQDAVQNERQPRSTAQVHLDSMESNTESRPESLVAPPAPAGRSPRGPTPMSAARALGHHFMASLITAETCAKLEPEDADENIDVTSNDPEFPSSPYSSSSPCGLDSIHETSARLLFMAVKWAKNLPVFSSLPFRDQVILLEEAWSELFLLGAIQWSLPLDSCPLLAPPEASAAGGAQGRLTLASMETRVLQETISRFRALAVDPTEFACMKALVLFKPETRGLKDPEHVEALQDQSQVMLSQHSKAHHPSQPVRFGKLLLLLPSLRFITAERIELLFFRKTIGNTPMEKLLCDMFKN
# [4] = target: Peroxisome proliferator-activated receptor gamma/Nuclear receptor corepressor 2 (Homo sapiens, UniProt P37231+Q9Y618); type: functional
# [5] = luciferase reporter signal reduction – luminescence, H4-C neuroglioblastoma cells, dose response (AID 2458); type: functional, cell-based;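 also: H4 neuroglioblastoma cells stably carrying a luciferase reporter gene fusion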
# cells [6] = type: functional, cell-based
# [7] = Luminescence Cell-Based Dose Response HTS to Identify Inhibitors of 5'UTR Stem-Loop Driven Prion Protein mRNA Translation in H4 Neuroglioblastoma Cells. [Related pubchem assays: 1827 (Project Summary), 1813 (Primary HTS)]; type: functional
# [8] = inhibitors of SNCA 5'UTR-driven reporter translation, confirmation, H4 neuroglioma cells, luminescence (AID 1988); type: functional, cell-based
# [9] = inhibitors of SNCA 5'UTR-driven translation, confirmation, luminescence, H4 neuroglioblastoma cells, dose confirmation (AID 2454); type: functional, cell-based;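 also: H4 neuroglioblastoma cells carrying an alpha-synuclein 5'UTR luciferase reporter; potency for inhibition of the luciferase signal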
# [10] = cytotoxicity in HEK-293T cells, dose response, cytotoxicity control for BCR NF-kB inhibitor project, luminescence, B-cell screen hits (AID 489021); type: functional, cell-based;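 also: HEK-293T cells carrying an NF-kB luciferase reporter; cells exposed to compound for about 14 hours before viability readout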
# [11] = inhibitors of firefly luciferase expression or activity, dose response, H4 neuroglioma cells, luminescence (AID 1990); type: functional, cell-based
# [12] = target: T1, RNA-binding protein pos-1 (Caenorhabditis elegans, UniProt G5EF15); test: inhibitors of POS-1/mex-3 RNA binding, dose response, biochemical, fluorescence polarization (AID 1964);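 also: purified POS-1 fused to maltose binding protein made in E. coli; potency of compounds blocking POS-1 binding to fluorescent RNA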
# T1 sequence (G5EF15 whole entry): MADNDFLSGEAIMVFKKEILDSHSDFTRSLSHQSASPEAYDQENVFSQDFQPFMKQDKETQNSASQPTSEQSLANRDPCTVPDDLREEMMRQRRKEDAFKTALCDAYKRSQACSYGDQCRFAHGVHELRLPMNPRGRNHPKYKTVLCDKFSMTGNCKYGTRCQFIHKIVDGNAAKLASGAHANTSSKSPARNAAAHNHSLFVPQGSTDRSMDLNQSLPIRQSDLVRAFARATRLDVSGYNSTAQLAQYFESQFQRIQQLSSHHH
# Cytochrome P450 2D6 = Cytochrome P450 2D6 (Homo sapiens, UniProt P10635); test: qHTS Assay for Inhibitors and Substrates of Cytochrome P450 2D6. [Related pubchem assays: 410 ]; type: ADME; details: read-out: Potency
# Sequence of Cytochrome P450 2D6 (P10635 whole entry): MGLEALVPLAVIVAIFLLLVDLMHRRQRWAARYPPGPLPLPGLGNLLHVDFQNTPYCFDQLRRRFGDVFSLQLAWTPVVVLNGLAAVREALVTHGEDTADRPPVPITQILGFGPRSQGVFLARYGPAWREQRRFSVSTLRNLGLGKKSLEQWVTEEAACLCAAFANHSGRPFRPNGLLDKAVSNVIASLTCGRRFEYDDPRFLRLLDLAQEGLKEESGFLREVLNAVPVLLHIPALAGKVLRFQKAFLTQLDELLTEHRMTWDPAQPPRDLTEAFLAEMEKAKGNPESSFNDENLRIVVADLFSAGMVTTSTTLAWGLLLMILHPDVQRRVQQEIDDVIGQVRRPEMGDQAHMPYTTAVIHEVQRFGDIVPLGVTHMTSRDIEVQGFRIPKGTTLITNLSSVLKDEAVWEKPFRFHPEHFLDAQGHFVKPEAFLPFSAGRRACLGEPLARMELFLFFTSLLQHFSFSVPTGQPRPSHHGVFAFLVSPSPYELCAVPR
# [13] = target: T2, Zinc finger protein mex-5 (Caenorhabditis elegans, UniProt Q9XUB2); test: MEX-5/TCR-2 RNA interaction inhibitors, dose response, biochemical, C. elegans, fluorescence polarization (AID 1960)
# T2 sequence (Q9XUB2 whole entry): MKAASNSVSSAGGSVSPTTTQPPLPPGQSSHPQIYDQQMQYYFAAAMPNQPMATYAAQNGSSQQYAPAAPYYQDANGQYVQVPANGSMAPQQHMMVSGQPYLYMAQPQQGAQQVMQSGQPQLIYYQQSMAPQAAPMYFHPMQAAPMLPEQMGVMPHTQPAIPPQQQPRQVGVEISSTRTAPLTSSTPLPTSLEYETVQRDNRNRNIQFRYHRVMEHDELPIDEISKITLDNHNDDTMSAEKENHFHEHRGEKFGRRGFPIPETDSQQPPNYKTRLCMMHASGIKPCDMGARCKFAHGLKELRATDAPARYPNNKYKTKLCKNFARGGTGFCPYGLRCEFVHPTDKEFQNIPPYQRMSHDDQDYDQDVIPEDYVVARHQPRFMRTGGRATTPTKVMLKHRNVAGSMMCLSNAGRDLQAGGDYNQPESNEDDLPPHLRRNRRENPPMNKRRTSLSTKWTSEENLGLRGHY
# Cytochrome P450 2C9 = Cytochrome P450 2C9 (Homo sapiens, UniProt P11712); details: Potency
# [14] = NIH-3T3 fibroblast cytotoxicity, dose response, cytotoxicity control, cell-based, fluorescence, Alamar Blue, secondary assay (AID 2327); type: functional;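 also: NIH-3T3 mouse fibroblasts cultured with fluconazole at 8 µg/mL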
# [15] = A cytotoxicity screen of small molecule inhibitors of the PhoP region in Salmonella typhi identified in the primary screen. [Related pubchem assays: 1850, 1864, 1985 ]; type: functional
# [16] = C. albicans growth with fluconazole, confirmation, fluorescence, retest (AID 2467); type: functional, cell-based
# [17] = Luminescence Cell-Based Dose Retest to Confirm Inhibitors of Cancer Stem Cells. [Related pubchem assays (depositor defined):AID2717, AID2721]; type: functional; details: Homo sapiens
# [18] = target: T3, Eukaryotic translation initiation factor 2-alpha kinase 3 (Homo sapiens, UniProt Q9NZJ5); test: Dose response cell-based high-throughput screening assay to measure PERK inhibition. [Related pubchem assays: 1416 ]; type: functional
# T3 sequence (Q9NZJ5 whole entry): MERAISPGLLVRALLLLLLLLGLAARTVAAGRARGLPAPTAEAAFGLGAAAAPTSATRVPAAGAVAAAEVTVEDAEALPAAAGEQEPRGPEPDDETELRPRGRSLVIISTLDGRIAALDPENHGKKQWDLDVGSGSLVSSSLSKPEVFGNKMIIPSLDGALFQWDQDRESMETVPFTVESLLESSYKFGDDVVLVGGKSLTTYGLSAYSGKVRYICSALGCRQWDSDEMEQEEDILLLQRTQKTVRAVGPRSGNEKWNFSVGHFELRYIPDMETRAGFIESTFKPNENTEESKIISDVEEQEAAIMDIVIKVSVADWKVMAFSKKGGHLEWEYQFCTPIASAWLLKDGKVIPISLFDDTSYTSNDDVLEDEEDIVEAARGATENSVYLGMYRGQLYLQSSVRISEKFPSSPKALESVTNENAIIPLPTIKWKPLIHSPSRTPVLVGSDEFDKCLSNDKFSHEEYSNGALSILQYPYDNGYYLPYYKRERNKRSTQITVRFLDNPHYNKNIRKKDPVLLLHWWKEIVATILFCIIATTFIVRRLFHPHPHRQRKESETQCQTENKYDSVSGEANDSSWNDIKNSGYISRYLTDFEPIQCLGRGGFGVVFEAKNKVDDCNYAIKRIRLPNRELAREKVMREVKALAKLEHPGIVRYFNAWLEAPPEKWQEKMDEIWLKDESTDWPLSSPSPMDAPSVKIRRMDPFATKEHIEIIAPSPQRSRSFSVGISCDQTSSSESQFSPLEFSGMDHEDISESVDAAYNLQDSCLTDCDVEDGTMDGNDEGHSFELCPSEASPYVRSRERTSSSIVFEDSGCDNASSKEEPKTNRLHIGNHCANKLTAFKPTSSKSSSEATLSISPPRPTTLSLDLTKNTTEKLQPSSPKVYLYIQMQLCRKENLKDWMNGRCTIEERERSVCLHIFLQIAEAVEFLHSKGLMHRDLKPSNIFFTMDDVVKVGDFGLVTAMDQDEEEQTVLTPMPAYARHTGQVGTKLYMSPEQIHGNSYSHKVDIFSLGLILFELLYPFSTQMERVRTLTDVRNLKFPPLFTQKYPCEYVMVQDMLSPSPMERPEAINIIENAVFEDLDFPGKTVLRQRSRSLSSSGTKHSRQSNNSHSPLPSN
# [19] = target: T3, Eukaryotic translation initiation factor 2-alpha kinase 3; test: Counterscreen assay for PERK inhibitors: Dose response cell-based high throughput screening assay to measure inhibition of PERK at 6 hours. [Related pubchem assays: 1522, 1416 ]; type: functional
# [20] = target: Serine/threonine-protein phosphatase PP1-alpha catalytic subunit (Homo sapiens, UniProt P62136); test: PP1 phosphatase inhibitors, dose response, biochemical, fluorescence (AID 2403);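 also: phosphatase turnover of OMFP into fluorescent 3-O-methylfluorescein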
# [21] = target: Serine/threonine-protein phosphatase (Homo sapiens, UniProt Q9BPW0); test: Counterscreen for inhibitors of PP1: fluorescence-based biochemical high throughput dose response assay to identify inhibitors of Protein Phosphatase 5 (PP5). [Related pubchem assays: 2034 (Summary (PP5 inhibitors)), 1987 (PP5 inhibitors in singlate), 2235 (PP1 inhibitors in singlate)]
# [22] = THP-1 cell cytotoxicity, dose response, cytotoxicity control for non-replicating M. tuberculosis project (AID 489025); type: functional
# [23] = Vero E6 cell cytotoxicity, dose response, cytotoxicity control for non-replicating M. tuberculosis project, secondary assay (AID 492998); type: functional, VeroE6; details: Vero C1008
# cells [24] = type: functional
# INS1 = test: beta cell apoptosis inhibitors, cytokine rescue, dose response, luminescence, retest (AID 449756); type: functional, cell-based; details: Rattus norvegicus;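 also: cell death triggered by IL-1 beta plus TNF-alpha plus IFN-gamma mixture; protective hits raise ATP signal compared with cytokine alone wells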
# [25] = target: Guanyl-specific ribonuclease T1 (Aspergillus oryzae (strain ATCC 42149 / RIB 40), UniProt P00651); test: RNase T1 inhibitors, dose response, counter-screen for TPT1 inhibitor project, biochemical, fluorescence polarization, 1536-well (AID 2167)
# Sequence of Guanyl-specific ribonuclease T1 (P00651 whole entry): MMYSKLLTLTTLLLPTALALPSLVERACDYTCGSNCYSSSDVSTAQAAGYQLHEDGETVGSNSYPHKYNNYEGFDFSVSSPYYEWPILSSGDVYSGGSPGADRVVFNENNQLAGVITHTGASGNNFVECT
# SUMO-activating enzyme [26] = target: T4, SUMO-activating enzyme (Homo sapiens, UniProt Q9UBT2); test: SUMOylation inhibitor hit validation, confirmation, SUMOylation inhibitor project, biochemical, AlphaScreen (AID 2018); type: functional
# T4 sequence (Q9UBE0 whole entry): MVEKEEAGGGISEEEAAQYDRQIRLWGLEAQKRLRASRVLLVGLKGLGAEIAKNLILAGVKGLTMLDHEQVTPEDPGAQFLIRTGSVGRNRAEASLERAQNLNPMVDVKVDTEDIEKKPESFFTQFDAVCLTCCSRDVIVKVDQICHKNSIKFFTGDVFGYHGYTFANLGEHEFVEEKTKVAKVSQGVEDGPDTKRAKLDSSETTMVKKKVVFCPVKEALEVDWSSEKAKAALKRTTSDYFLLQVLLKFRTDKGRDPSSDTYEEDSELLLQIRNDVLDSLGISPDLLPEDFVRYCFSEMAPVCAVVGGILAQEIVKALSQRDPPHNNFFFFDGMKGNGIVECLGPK
# T4 sequence (Q9UBT2 whole entry): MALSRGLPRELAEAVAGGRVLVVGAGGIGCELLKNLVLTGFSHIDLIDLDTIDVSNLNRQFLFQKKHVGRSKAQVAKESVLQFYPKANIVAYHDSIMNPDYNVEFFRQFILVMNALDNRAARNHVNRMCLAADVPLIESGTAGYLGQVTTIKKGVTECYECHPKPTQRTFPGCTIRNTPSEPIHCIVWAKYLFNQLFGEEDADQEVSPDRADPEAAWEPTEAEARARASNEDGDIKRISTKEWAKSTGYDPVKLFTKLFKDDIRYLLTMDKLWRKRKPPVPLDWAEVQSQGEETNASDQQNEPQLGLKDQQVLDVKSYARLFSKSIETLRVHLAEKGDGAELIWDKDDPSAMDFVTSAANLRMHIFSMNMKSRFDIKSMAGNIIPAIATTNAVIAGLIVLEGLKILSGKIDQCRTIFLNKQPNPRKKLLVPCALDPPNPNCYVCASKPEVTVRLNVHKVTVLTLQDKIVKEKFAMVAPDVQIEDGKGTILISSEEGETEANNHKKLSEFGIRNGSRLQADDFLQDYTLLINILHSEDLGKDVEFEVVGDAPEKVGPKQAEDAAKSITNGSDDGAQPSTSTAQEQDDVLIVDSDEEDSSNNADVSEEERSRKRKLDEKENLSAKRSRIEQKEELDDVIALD
# SUMO-activating enzyme [27] = target: T4, SUMO-activating enzyme; test: inhibitors of in vitro SUMOylation cascade, primary screen, biochemical, HTRF, uHTS (AID 2006); type: protein-complex assay
# [28] = target: Likely tRNA 2'-phosphotransferase (Candida albicans (strain SC5314 / ATCC MYA-2876) (Yeast), UniProt Q5A7N4); test: TPT1 tRNA phosphotransferase inhibitors, dose response, biochemical, fluorescence polarization (AID 2160)
# [29] = target: Induced myeloid leukemia cell differentiation protein Mcl-1 (Homo sapiens, UniProt Q07820); type: functional
# Sequence of Induced myeloid leukemia cell differentiation protein Mcl-1 (Q07820 whole entry): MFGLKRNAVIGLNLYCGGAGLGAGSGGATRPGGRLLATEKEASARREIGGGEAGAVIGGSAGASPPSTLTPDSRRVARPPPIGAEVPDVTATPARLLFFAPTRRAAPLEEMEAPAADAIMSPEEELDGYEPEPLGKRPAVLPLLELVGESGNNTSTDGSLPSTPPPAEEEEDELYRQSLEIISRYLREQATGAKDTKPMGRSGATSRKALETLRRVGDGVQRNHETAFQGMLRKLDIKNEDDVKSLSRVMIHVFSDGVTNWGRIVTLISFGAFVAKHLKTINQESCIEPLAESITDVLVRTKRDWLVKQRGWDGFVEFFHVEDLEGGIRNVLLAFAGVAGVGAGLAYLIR
# [30] = target: Intestinal-type alkaline phosphatase (Homo sapiens, UniProt P09923); test: activation of human intestinal alkaline phosphatase – biochemical, dose response (AID 488873); type: functional
# [31] = target: Intestinal-type alkaline phosphatase (Mus musculus, UniProt P24822); test: PubChem AID 488785; type: functional
# Sequence of Intestinal-type alkaline phosphatase (Mus musculus, UniProt P24822) (P24822 whole entry): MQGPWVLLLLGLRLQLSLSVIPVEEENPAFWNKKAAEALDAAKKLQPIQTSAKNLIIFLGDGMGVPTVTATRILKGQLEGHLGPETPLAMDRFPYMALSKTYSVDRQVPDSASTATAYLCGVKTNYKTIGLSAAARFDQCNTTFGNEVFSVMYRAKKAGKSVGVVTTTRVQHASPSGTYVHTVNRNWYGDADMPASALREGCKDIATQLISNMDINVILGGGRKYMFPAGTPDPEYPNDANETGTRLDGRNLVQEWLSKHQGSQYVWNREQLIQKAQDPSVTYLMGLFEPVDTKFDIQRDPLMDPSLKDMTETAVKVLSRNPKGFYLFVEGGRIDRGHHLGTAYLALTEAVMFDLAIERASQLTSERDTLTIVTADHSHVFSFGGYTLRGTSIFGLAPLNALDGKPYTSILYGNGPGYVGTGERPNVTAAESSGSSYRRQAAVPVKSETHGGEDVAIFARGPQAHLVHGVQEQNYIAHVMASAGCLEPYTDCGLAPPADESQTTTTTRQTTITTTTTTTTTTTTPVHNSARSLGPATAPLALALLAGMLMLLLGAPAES
# [32] = target: T5, Alkaline phosphatase, tissue-nonspecific isozyme (Homo sapiens, UniProt P05186); test: TNAP enzyme inhibition by screening hits, dose response, selectivity assay for mouse IAP inhibitor project, biochemical, human TNAP, uHTS hits (AID 488906); type: functional
# T5 sequence (P05186 whole entry): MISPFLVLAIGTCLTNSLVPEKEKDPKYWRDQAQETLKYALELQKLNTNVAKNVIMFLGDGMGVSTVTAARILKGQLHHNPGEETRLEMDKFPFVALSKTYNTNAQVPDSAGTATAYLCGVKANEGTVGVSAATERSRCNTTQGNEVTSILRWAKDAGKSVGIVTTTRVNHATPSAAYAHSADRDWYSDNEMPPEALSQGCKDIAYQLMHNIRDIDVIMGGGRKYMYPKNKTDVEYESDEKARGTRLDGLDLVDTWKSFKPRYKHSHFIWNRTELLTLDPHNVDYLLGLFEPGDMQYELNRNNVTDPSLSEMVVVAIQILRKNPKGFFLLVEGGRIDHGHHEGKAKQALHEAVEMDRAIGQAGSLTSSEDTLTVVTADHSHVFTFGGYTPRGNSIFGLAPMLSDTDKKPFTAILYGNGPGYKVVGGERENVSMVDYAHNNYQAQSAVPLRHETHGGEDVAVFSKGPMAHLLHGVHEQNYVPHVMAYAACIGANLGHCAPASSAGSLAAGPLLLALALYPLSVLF
# Cysteine protease ATG4B = target: T6, Cysteine protease ATG4B (Homo sapiens, UniProt Q9Y4P1); type: functional;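 also: Fluorescence-based dose-response confirmation assay measuring inhibition of ATG4B activity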
# T6 sequence (Q9Y4P1 whole entry): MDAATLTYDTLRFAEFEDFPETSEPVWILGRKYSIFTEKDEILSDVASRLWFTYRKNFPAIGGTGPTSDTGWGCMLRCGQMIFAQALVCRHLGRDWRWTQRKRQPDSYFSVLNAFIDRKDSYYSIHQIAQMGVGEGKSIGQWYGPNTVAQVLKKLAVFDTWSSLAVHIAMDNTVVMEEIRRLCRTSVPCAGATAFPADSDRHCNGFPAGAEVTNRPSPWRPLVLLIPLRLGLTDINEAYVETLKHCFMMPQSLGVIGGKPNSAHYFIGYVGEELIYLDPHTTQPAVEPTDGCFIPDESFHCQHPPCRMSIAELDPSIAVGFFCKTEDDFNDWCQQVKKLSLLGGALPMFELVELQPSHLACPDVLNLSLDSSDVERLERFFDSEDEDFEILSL
# Phospholipase A2 = Phospholipase A2 (Homo sapiens, UniProt P04054); type: functional;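 also: confirmatory dose-response counterscreen on phospholipase A2, testing hits that came from an ultra-high-throughput screen for ATG4B inhibitors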
# Sequence of Phospholipase A2 (P04054 whole entry): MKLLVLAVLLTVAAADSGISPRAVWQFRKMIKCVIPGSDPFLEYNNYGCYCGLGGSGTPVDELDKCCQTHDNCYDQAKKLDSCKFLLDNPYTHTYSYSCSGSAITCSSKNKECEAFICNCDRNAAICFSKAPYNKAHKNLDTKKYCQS
# [33] = target: C-C chemokine receptor type 6 (Homo sapiens, UniProt P51684); test: CCR6 receptor antagonists, dose response, cell-based, luminescent beta-arrestin readout (AID 504728); type: functional
# Beta-galactosidase = Beta-galactosidase (Escherichia coli, UniProt Q8VNN2); test: beta-galactosidase enzyme inhibitors and activators, dose response, artefact control for CCR6 antagonist project, biochemical, E. coli enzyme, set 3 (AID 504712); type: functional
# [34] = target: T5, Alkaline phosphatase, tissue-nonspecific isozyme
# [35] = target: G2/mitotic-specific cyclin-B1 (Homo sapiens, UniProt P14635); test: Counterscreen assay for inhibitors of Wee1 degradation: dose response cell-based assay to identify inhibitors of cyclin B degradation. [Related pubchem assays: 1410, 1321 ]; type: functional
# Sequence of G2/mitotic-specific cyclin-B1 (P14635 whole entry): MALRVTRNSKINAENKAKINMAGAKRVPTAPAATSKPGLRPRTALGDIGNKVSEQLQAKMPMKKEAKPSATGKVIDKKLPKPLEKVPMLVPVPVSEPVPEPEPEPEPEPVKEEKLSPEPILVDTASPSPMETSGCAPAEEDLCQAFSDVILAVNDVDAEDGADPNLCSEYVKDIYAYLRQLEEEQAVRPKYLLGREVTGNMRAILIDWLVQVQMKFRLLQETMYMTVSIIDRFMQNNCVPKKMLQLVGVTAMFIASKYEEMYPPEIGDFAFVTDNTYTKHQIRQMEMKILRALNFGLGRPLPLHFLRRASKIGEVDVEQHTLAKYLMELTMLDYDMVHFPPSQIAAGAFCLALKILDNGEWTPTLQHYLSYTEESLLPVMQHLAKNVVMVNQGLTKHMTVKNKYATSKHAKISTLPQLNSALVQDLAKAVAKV
# Wee1-like protein kinase = Wee1-like protein kinase (Homo sapiens, UniProt P30291); test: Dose Response Cell-based Assay for Inhibitors of Wee1 Degradation. [Related pubchem assays: 1410, 1321 ]; type: functional
compound,measurement,setting,value
O=C(Nc1ccc2ncccc2c1)c1ccccc1,IC50,[1],> 100 µM (inactive)
same,IC50,[2],14.2 µM (active)
Cc1ccc(-n2c(=S)[nH]c3c(oc4ccccc43)c2=O)cc1,IC50,[3],4.75 µM (active)
same,IC50,[4],6.54 µM (active)
O=C(Nc1ccc(NC(=O)c2cc3ccccc3o2)cc1)c1ccc2c(c1)OCCO2,EC50,[5],3.02 µM (active)
same,EC50,cells [6],> 12 µM (not active)
same,EC50,[7],12.7 µM (active)
same,EC50,[8],< 0.1 µM (active)
same,EC50,[9],2.35 µM (active)
same,IC50,[10],> 80 µM (inactive)
COc1cc2c(cc1OC)-c1c(OC)c(OC)cc3ccnc(c13)C2=O [OXOGLAUCINE],EC50,[11],> 120 µM (not active)
same,EC50,[12],68.6 µM (active)
same,EC50,[7],9.88 µM (active)
same,AC50,Cytochrome P450 2D6,10 µM (inconclusive)
same,EC50,[13],0.834 µM (active)
same,EC50,[8],7 µM (active)
same,AC50,Cytochrome P450 2C9,39.8 µM (inconclusive)
Cc1ccc(N/N=C/c2ccncc2)cc1,EC50,[14],14.4 µM (active)
same,EC50,[15],> 50 µM (active)
same,EC50,[16],> 38 µM (not active)
same,AC50,[17],4.65 µM (active)
FC(F)(F)c1cccc(Oc2ccc3c(C(F)(F)F)cc(C(F)(F)F)nc3n2)c1,EC50,[18],> 55.7 µM (not active)
same,EC50,[19],> 55.7 µM (not active)
COc1ccc(/C=N/Nc2cc(C)nc(-n3nc(C)cc3C)n2)cc1,IC50,[20],5.81 µM (active)
same,IC50,[21],> 67 µM (not active)
same,CC50,[22],6.97 µM (active)
same,CC50,[23],8.36 µM (active)
same,IC50,cells [24],< 0.1 µM (active)
same,AC50,INS1,2.42 µM (active)
O=C(NN1C(=O)/C(=C/C=C/c2ccco2)SC1=S)c1ccncc1,IC50,[25],12.3 µM (not active)
same,IC50,SUMO-activating enzyme [26],0.53 µM (active)
same,IC50,SUMO-activating enzyme [27],6.1 µM (active)
same,IC50,[28],14 µM (not active)
same,IC50,[29],5.08 µM (active)
same,EC50,[30],> 100 µM (inactive)
same,IC50,[31],13.5 µM (active)
same,IC50,[32],> 100 µM (inactive)
same,IC50,Cysteine protease ATG4B,11.1 µM (active)
same,IC50,Phospholipase A2,> 80 µM (inactive)
CN(Cc1ccccc1)S(=O)(=O)c1ccc(NC(=S)NC(=O)C2CCCCC2)cc1,IC50,[33],> 66.6 µM (inactive)
same,IC50,Beta-galactosidase,> 66.6 µM (inactive)
COc1cccc(N(C(=O)c2cc[nH]n2)C2(C(=O)Nc3c(C)cccc3C)CCCCC2)c1,EC50,[34],52.9 µM (not active)
COc1ccccc1-c1ccc(SCc2ccccc2F)nn1,EC50,[35],> 49.7 µM (not active)
same,EC50,Wee1-like protein kinase,> 49.7 µM (not active)
